From EP0565593B1, “REDUCING PESTICIDAL INTERACTIONS IN CROPS” (priority 1990, dated 1992)

Legend:
Format in all cases: in vivo
Corn [1] = assay: Greenhouse test, combination of Procedures II and III: insecticide in-furrow or in cover layer, herbicide and antidote incorporated in cover layer (Examples 1-3, 6; Tables 1-3, 6); settings: for % Injury Corn / % Corn Injury PN 3320 / % Corn Injury PN 3377: 3 weeks; for Percent Injury Corn: 7 weeks; for corn injury safened: 0.14 kg/ha herbicide plus Insecticide No. 1, Antidote No. 1 0.42 kg/ha
Corn [2] = assay: Greenhouse test Procedure I with PPI or POE herbicide and foliar insecticide (Example 5; Table 5); settings: for % Injury Corn: 3 weeks
Protocol: (§1) Containers were filled and compacted with a fumigated silt loam top soil to a depth of about 1.3 cm from the top of the container. A first container was designated as an untreated control, a second container was designated as a herbicide control, and a third container was designated as a herbicide + antidote test container. Each of the containers was seeded with a crop species. A measured amount of herbicide dispersed or dissolved in acetone was applied to a measured quantity of soil. To this same quantity of soil treated with herbicide, there was added a measured amount of antidote dispersed or dissolved in acetone. The quantity of soil treated with the herbicide and antidote was thoroughly mixed to incorporate the herbicide and antidote in the soil uniformly. The seed bed in the third container of soil was covered with the soil treated with the herbicide and antidote and the container was leveled. For each test series, the seed beds of the first and second containers were likewise covered by soil layers. the cover layer of the first container was not treated with herbicide or antidote.
Insecticide application was made as described in the tests in the examples below. The containers were then placed on a bench in a greenhouse and sub-irrigated as required for the duration of the test.
Said herbicide and antidote were sequentially pipetted onto cover layers, which were spread over the seed beds and subirrigated as in Procedure I and allowed to grow to a height of about 10 cm over a period of 11 days. Herbicide No. 1 and Insecticide No. 2 were then sequentially sprayed on the plant foliage. Observations were made three (3) weeks after initial treatment, 10 days after foliar treatment).

Corn [3] = assay: Greenhouse test Procedure II: herbicide, insecticide and antidote incorporated in cover layer (Example 4; Table 4); settings: 3 weeks
Protocol: as §1
This procedure is the same as Procedure I, but modified in the manner that after incorporation of the chemicals (herbicide, antidote and insecticide), the containers with the covered seedbed were treated with an initial overhead irrigation equivalent to 0.6 cm rainfall, then subsequently sub-irrigated as required on greenhouse benches.
The procedure used in this test was Procedure No. 2 above. Formulations of herbicide, insecticide and antidote were applied via track sprayer sequentially onto cover layers, incorporated into the soil which was spread over seedbeds, then irrigated from above with 0.6 cm water. Observations were made three (3) weeks after treatment.

[4] = Ex. 6: Antidote 1 0.14 + Herbicide 1 0.14 Kg/Ha
[5] = Ex. 6: Antidote 1 0.42 + Herbicide 1 0.14 Kg/Ha
[6] = Ex. 6: Antidote 1 0.56 + Herbicide 1 0.56 Kg/Ha
[7] = Ex. 6: Antidote 1 1.68 + Herbicide 1 0.56 Kg/Ha
[8] = Ex. 6: Insecticide 1 0.23 Kg/305m + Antidote 1 0.14 + Herbicide 1 0.14 Kg/Ha
[9] = Ex. 6: Insecticide 1 0.23 Kg/305m + Antidote 1 0.42 + Herbicide 1 0.14 Kg/Ha
[10] = Ex. 6: Insecticide 1 0.23 Kg/305m + Antidote 1 0.56 + Herbicide 1 0.56 Kg/Ha
[11] = Ex. 6: Insecticide 1 0.23 Kg/305m + Antidote 1 1.68 + Herbicide 1 0.56 Kg/Ha
[12] = Ex. 6: Insecticide 2 0.23 Kg/305m + Antidote 1 0.14 + Herbicide 1 0.14 Kg/Ha
[13] = Ex. 6: Insecticide 2 0.23 Kg/305m + Antidote 1 0.42 + Herbicide 1 0.14 Kg/Ha
[14] = Ex. 6: Insecticide 2 0.23 Kg/305m + Antidote 1 0.56 + Herbicide 1 0.56 Kg/Ha
[15] = Ex. 6: Insecticide 2 0.23 Kg/305m + Antidote 1 1.68 + Herbicide 1 0.56 Kg/Ha

## CC1(C)OC(c2ccco2)CN1C(=O)C(Cl)Cl (stereo not drawn) [Antidote No. 1, Oxazolidine, 3-(dichloroacetyl)-2,2-dimethyl-5-(2-furanyl)-]
Corn [1]; Ex. 3: Insecticide 4 (227g) + Antidote 1 0.14 + Herbicide 1 0.14 Kg/Ha
  % Injury Corn: 3%
Corn [1]; Ex. 3: Insecticide 4 (227g) + Antidote 1 0.22 + Herbicide 1 0.14 + Herbicide 2 4.48 Kg/Ha
  % Injury Corn: 48%
Corn [1]; Ex. 3: Insecticide 4 (227g) + Antidote 1 0.22 + Herbicide 2 4.48 Kg/Ha
  % Injury Corn: 45%
Corn [1]; Ex. 3: Insecticide 4 (227g) + Antidote 1 0.42 + Herbicide 1 0.14 Kg/Ha
  % Injury Corn: 5%
Corn [1]; Ex. 3: Insecticide 4 (227g) + Antidote 1 0.56 + Herbicide 1 0.56 Kg/Ha
  % Injury Corn: 28%
Corn [1]; Ex. 3: Insecticide 4 (227g) + Antidote 1 1.68 + Herbicide 1 0.56 Kg/Ha
  % Injury Corn: 5%
Corn [1]; [4]
  % Corn Injury PN 3320: 15%
  % Corn Injury PN 3377: 15%
Corn [1]; [5]
  % Corn Injury PN 3320: 10%
  % Corn Injury PN 3377: 0%
Corn [1]; [6]
  % Corn Injury PN 3320: 68%
  % Corn Injury PN 3377: 0%
Corn [1]; [7]
  % Corn Injury PN 3320: 43%
  % Corn Injury PN 3377: 0%
Corn [1]; [8]
  % Corn Injury PN 3320: 40%
  % Corn Injury PN 3377: 18%
Corn [1]; [9]
  % Corn Injury PN 3320: 25%
  % Corn Injury PN 3377: 3%
Corn [1]; [10]
  % Corn Injury PN 3320: 40%
  % Corn Injury PN 3377: 35%
Corn [1]; [11]
  % Corn Injury PN 3320: 35%
  % Corn Injury PN 3377: 35%
Corn [1]; [12]
  % Corn Injury PN 3320: 15%
  % Corn Injury PN 3377: 0%
Corn [1]; [13]
  % Corn Injury PN 3320: 10%
  % Corn Injury PN 3377: 13%
Corn [1]; [14]
  % Corn Injury PN 3320: 68%
  % Corn Injury PN 3377: 10%
Corn [1]; [15]
  % Corn Injury PN 3320: 43%
  % Corn Injury PN 3377: 28%
Corn [1]; Insecticide 1 0.23 kg/305m + Antidote 1 0.14 + Herbicide 1 0.14 Kg/Ha
  Percent Injury Corn: 8%
Corn [1]; Insecticide 1 0.23 kg/305m + Antidote 1 0.14 Kg/Ha, no herbicide
  Percent Injury Corn: 0%
Corn [1]; Insecticide 1 0.23 kg/305m + Antidote 1 0.56 + Herbicide 1 0.56 Kg/Ha
  Percent Injury Corn: 25%
Corn [1]; Insecticide 1 0.23 kg/305m + Antidote 1 0.56 Kg/Ha, no herbicide
  Percent Injury Corn: 0%
Corn [1]; Insecticide 1 0.23 kg/305m + Antidote 1 2.24 + Herbicide 1 2.24 Kg/Ha
  Percent Injury Corn: 77%
Corn [1]; Insecticide 1 0.23 kg/305m + Antidote 1 2.24 Kg/Ha, no herbicide
  Percent Injury Corn: 0%
Corn [1]; Insecticide 1 (H2O) (crystals scattered in-furrow) + Antidote 1 2 + Herbicide 1 2 Kg/Ha
  Percent Injury Corn: 78%
Corn [1]; Insecticide 1 (H2O) (crystals scattered in-furrow) + Antidote 1 2 Kg/Ha
  Percent Injury Corn: 13%
Corn [1]; Insecticide 2 3.36 kg/ha + Antidote 1 0.14 + Herbicide 1 0.14 Kg/Ha
  Percent Injury Corn: 75%
Corn [1]; Insecticide 2 3.36 kg/ha + Antidote 1 0.14 Kg/Ha, no herbicide
  Percent Injury Corn: 0%
Corn [1]; Insecticide 2 3.36 kg/ha + Antidote 1 0.56 + Herbicide 1 0.56 Kg/Ha
  Percent Injury Corn: 70%
Corn [1]; Insecticide 2 3.36 kg/ha + Antidote 1 0.56 Kg/Ha, no herbicide
  Percent Injury Corn: 0%
Corn [1]; Insecticide 2 3.36 kg/ha + Antidote 1 2.24 + Herbicide 1 2.24 Kg/Ha
  Percent Injury Corn: 92%
Corn [1]; Insecticide 2 3.36 kg/ha + Antidote 1 2.24 Kg/Ha, no herbicide
  Percent Injury Corn: 0%
Corn [1]; sensitive genotype PN 3320
  corn injury safened: 74%
Corn [1]; tolerant genotype PN 3377
  corn injury safened: 96%
Corn [2]; Antidote 1 0.14 + Herbicide 1 0.14 Kg/Ha PPI
  % Injury Corn: 0%
Corn [2]; Antidote 1 0.56 + Herbicide 1 0.56 Kg/Ha PPI
  % Injury Corn: 5%
Corn [2]; Antidote 1 2.24 + Herbicide 1 2.24 Kg/Ha PPI
  % Injury Corn: 0%
Corn [2]; Ex. 5: PPI Herbicide No. 1 with or without Insecticide No. 2
  safening: safened PPI herbicide treatments
Corn [2]; Insecticide 2 1.68 (foliar) + Antidote 1 0.14 + Herbicide 1 0.14 Kg/Ha PPI
  % Injury Corn: 0%
Corn [2]; Insecticide 2 1.68 (foliar) + Antidote 1 2.24 + Herbicide 1 2.24 Kg/Ha PPI
  % Injury Corn: 0%
Corn [2]; Insecticide 2 1.68 (foliar) + Antidote 1 2.24 Kg/Ha PPI, no herbicide
  % Injury Corn: 0%
Corn [3]; Antidote 1 0.07 + Herbicide 1 0.07 kg/Ha
  % Injury Corn: 0%
Corn [3]; Antidote 1 0.07 + Herbicide 4 0.07 kg/Ha
  % Injury Corn: 0%
Corn [3]; Antidote 1 0.07 + Herbicide 5 0.07 kg/Ha
  % Injury Corn: 20%
Corn [3]; Antidote 1 0.07 + Herbicide 6 0.07 kg/Ha
  % Injury Corn: 0%
Corn [3]; Antidote 1 0.14 + Herbicide 1 0.14 kg/Ha
  % Injury Corn: 10%
Corn [3]; Antidote 1 0.14 + Herbicide 4 0.14 kg/Ha
  % Injury Corn: 8%
Corn [3]; Antidote 1 0.14 + Herbicide 5 0.14 kg/Ha
  % Injury Corn: 55%
Corn [3]; Antidote 1 0.14 + Herbicide 6 0.14 kg/Ha
  % Injury Corn: 3%
Corn [3]; Insecticide 2 3.36 + Antidote 1 0.014 + Herbicide 1 0.14 kg/Ha
  % Injury Corn: 0%
Corn [3]; Insecticide 2 3.36 + Antidote 1 0.07 + Herbicide 1 0.07 kg/Ha
  % Injury Corn: 0%
Corn [3]; Insecticide 2 3.36 + Antidote 1 0.07 + Herbicide 4 0.07 kg/Ha
  % Injury Corn: 25%
Corn [3]; Insecticide 2 3.36 + Antidote 1 0.07 + Herbicide 5 0.07 kg/Ha
  % Injury Corn: 95%
Corn [3]; Insecticide 2 3.36 + Antidote 1 0.07 + Herbicide 6 0.07 kg/Ha
  % Injury Corn: 5%
Corn [3]; Insecticide 2 3.36 + Antidote 1 0.14 + Herbicide 4 0.14 kg/Ha
  % Injury Corn: 88%
Corn [3]; Insecticide 2 3.36 + Antidote 1 0.14 + Herbicide 5 0.14 kg/Ha
  % Injury Corn: 95%
Corn [3]; Insecticide 2 3.36 + Antidote 1 0.14 + Herbicide 6 0.14 kg/Ha
  % Injury Corn: 63%
